The record followed here is patent US6417327B1, “Peptide capable of regulating physiological function of FGF-5 and pharmaceutical composition containing the peptide” (Agency of Industrial Science and Technology, priority 1999, dated 2002).

No end group written: not given here.

Assay [1] relates to platelets. Kind of assay: Determination of thrombocytosis activity (number of platelets). It is filed as in vivo. To be noted: ICR mice, intraperitoneal; for increase of platelet: 1 μg/kg. How it is done: ICR mice (male, 6 weeks old, weights 29-32 g) were grouped into 4 groups of six mice. A test solution containing the above-mentioned FGF-5 peptide 6 was intraperitoneally administered for 10 successive days.
The peptide (3.3 mg/ml) in an injection solution (0.9% saline containing 100 μg/ml bovine serum albumin (Fraction V)) was administered to the mice at 0.3 ml/mouse (33 mg/kg) At the same time, human recombinant thrombopoietin solution (0.1 μg/ml) and human recombinant interleukin 6 solution (0.1 μg/ml) were prepared, and intraperitoneally administered for 0.3 ml per mouse (1 μg/kg). Five μl of blood was collected from the caudal vein of each mouse, and immediately mixed with 20 μl of 3.8% sodium citrate in a test tube. Subsequently, the blood mixtures were serially diluted twice with Cellpack and determined for the number of platelets, as well as to determine the numbers of erythrocytes and hemacrit values with Sysmex F-820 (TOA Electronics Ltd.)

Assay [2] concerns Balb/c3T3 cells. Kind of assay: Determination of DNA-synthesis-promoting activity (uptake of tritium, 3HTdR) without FGF-5. It is filed as cell-based. As to conditions: test solution FGF-5(-) with heparin, peptide 10^-7 to 10^-3 M, without the addition of FGF-5. How it is done: (§1) Balb/c3T3 cells (1.5×10^4 cells/500 μl) were plated on a 24-well culture plate and cultured in a DMEM medium for 24 hours in the presence o f 10% FCS. After washing the cells with the medium, a DMEM medium containing 0.3% FCS was added thereto to further culture the cells for 24 hours to synchronize the cells. To the mixture, test solutions [FGF-5(+)] containing heparin (5 μg/ml), one of FGF-5 peptides 1-5 synthesized in Example 1 (10^−7 to 10^−3 M) and the recombinant FGF-5 prepared in Reference Example 1 (10^−10 M) were added. After 16 hours of cultivation, 3 HTdR was added, and the cells were further cultured for 4 hours in a CO2 incubator. The supernatants were aspirated. The cells were washed with PBS, added with 10% TCA (125 μl), and incubated at room temperature. After confirming the immobilization of the cells, the supernatants were discarded. Five-hundred ul of 0.5N NaOH was added and the mixture was further incubated at room temperature for an hour, added with 3 ml scintillator and determined for the uptake of tritium into the cells with a liquid scintillation counter.
The uptake of tritium into cells was determined as described in (1) above with a liquid scintillation counter except that test solutions [FGF-5(−)] containing heparin and one of FGF-5 peptides 1-5 synthesized in Example 1 were used. […]

In assay [3] the test system is FGF-5. As to the kind of experiment: Determination of DNA-synthesis-inhibiting activity (uptake of tritium, 3HTdR) in the presence of recombinant FGF-5. It counts as cell-based, mouse. To be noted: Balb/c3T3 cells, test solution FGF-5(+) with heparin 5 μg/ml, recombinant FGF-5 10^-10 M, peptide 10^-7 to 10^-3 M. How it is done: as §1
As controls for the determinations of inhibiting and promoting activities, a test solution containing heparin (5 μg/ml) and the recombinant FGF-5 (10^−10 M) prepared in Reference Example 1 was used.

Assay [4] relates to mouse bone marrow cells. Kind of assay: Differentiating and proliferating activities to give megakaryocytes (increase of acetylcholineesterase activity). It is filed as cell-based. To be noted: cultured 4 days, acetylcholineesterase activity by fluorescence. The protocol: The differentiating and proliferating activities to give megakaryocytes were determined for this peptide, as the increase of acetylcholineesterase activity, by using mouse bone marrow cells as follows.
Bone marrow cells were taken from femur of ICR mouse (male, 6 weeks old), suspended in RPMI 1640 medium containing 1% fetal calf serum (FCS), and centrifuged. The supernatant was removed and the resultant was suspended in RPMI 1640 medium containing 0.5 mM DFP (diisopropylfluorophosphate) and 0.1% BSA (bovine serum albumin), and left to stand at room temperature for 20 min. Thereafter, the cells were washed with the same culture twice and suspended in RPMI 1640 medium containing 1% Neutridoma-SP and 0.1% BSA such that the number of cells was 2×10^6 cells/ml. The thus-prepared bone marrow cell suspension was dispensed in 100 μl into a 96-well culture plate, and cultured with a test solution containing 50 μl of FGF-5 peptide 6 at 37° C. for 4 days in the presence of 5% CO2.
Thereafter, the supernatant was removed, and the resultant was washed with PBS(−) twice and added with 180 μl 50 mM HEPES buffer (pH 7.6) containing 0.2% (w/v) Triton X-100 and 0.12 M NaCl and with 20 ul solution containing 5.6 mM acetylthiocholine iodide. […]

For the substance “human recombinant thrombopoietin: human recombinant thrombopoietin solution (0.1 μg/ml), comparator in the platelet test”, the increase of platelet entry in assay [1] was “about 1.6 fold”.
HEANMLS [FGF-5 peptide 3]: in assay [2], the DNA-synthesis-promoting activity entry was “promoted DNA synthesis”.
For the substance “Pro Asp Gly Lys Val Asn Gly Ser His Glu Ala Asn Met Leu Ser GIn Val His Arg (PDGKVNGSHEANMLSQVHR; SEQ ID NO10 represents a partial sequence of the amino acid sequence of human FGF-5.) [FGF-5 peptide 1]”, the DNA-synthesis-promoting activity entry in assay [2] is “promoted DNA synthesis”.
Regarding HEANMLSQVHR [FGF-5 peptide 4], the DNA-synthesis-inhibiting activity result in assay [3] is reported as “inhibited DNA synthesis”.
As to PDGKVNGSHEANM [FGF-5 peptide 6], in assay [4], the “differentiating and proliferating activities to give megakaryocytes” value is “exerts differentiating and proliferating activities to give megakaryocytes”. In addition, the “increase of the numbers of platelets” value in assay [1] (33 mg/kg, 10 successive days, two to 4 days after the administration) was determined as 1.6 folds.
As for “human recombinant interleukin 6: human recombinant interleukin 6 solution (0.1 μg/ml), comparator in the platelet test”, the increase of platelet entry in assay [1] is “about 1.6 fold”.
On to “Gln Val His Arg (QVHR; SEQ ID NO3 represents a partial sequence (corresponding to amino acids 120-123) of the amino acid sequence of human FGF-5S.) [FGF-5 peptide 5]”, for which the DNA-synthesis-inhibiting activity result in assay [3] is “inhibited DNA synthesis”.
